Data on 6 compounds can be found in patent US20060234909A1, “Compositions and methods for increasing drug efficiency” (priority 2003, published 2006).

Data set [1] addresses Tie-2 (Homo sapiens, UniProt Q02763). Conditions: Deng et al. 2001; read-out: Km as substrate for Tie-2; cited from earlier work.
Data set [2] addresses Met kinase (Homo sapiens, UniProt P08581). As to conditions: Hays and Watowich 2003; read-out: Km as substrate for Met kinase; cited from earlier work.
Data set [3] deals with HT-29 cells. The experiment in a line: cells. As to conditions: Homo sapiens, HT-29, read-out: HT-29 Soft Agar EC50.
The test system of data set [4] is MCF-7 cells. As to the kind of experiment: cells. As to conditions: Homo sapiens, MCF7, read-out: MCF-7 Soft Agar EC50.
Data set [5] in a line: Serum stability in RPMI1640 medium containing 10% fetal bovine serum. The format is in vitro ADME. Conditions: for remaining at 4 h, 10 μM / remaining at 8 h, 10 μM / remaining at 24 h, 10 μM / remaining at 72 h, 10 μM / half-life at 10 μM: bovine; for remaining at 4 h, 10 μM: read-out: Relative Percent Remaining at 4 hr; for remaining at 8 h, 10 μM: read-out: Relative Percent Remaining at 8 hr; for remaining at 24 h, 10 μM: read-out: Relative Percent Remaining at 24 hr; for remaining at 72 h, 10 μM: read-out: Relative Percent Remaining at 72 hr; for half-life at 10 μM: read-out: T½ (converted). The method, then:
The stability of conjugates was measured in RPMI1640 cell culture medium containing 10% fetal bovine serum. The serum-containing medium was pre-warmed at 37° C. for 3 min prior to addition of test articles. Test articles, prepared in DMSO as 5 mM stocks, were added to the cell culture media to a final concentration of 10 μM. Aliquots ([…]) were withdrawn in triplicate at 0, 4, 8, 24 and 72 hours and combined with the same volume of ice-cold acetonitrile to terminate the reaction. The mixture was centrifuged at 2,000×g for 10 minutes. One part of the supernatant was mixed with four parts of deionized water to bring down the percentage of organic solvent. The diluted samples were then assayed by LC/MS for the test article. The natural log of the percent remaining was plotted versus time. A linear fit was used to determine the rate constant. The fit was truncated after the percent of remaining test article was less than 10%. The elimination half-lives associated with the disappearance of test articles were determined to compare their relative stability. The assays were carried out by Absorption Systems (Exton, Pa.).

Data set [6] concerns Normal human foreskin fibroblasts (HFF). As to the kind of experiment: cells. As to conditions: Fibroblast, 72 h, read-out: HFFMonolayer EC50.
Data set [7] in a line: in vitro. As to conditions: human.
Data set [8] addresses Akt (Homo sapiens, UniProt P31749). Conditions: Akt peptide substrates, Alessi et al. 1996; cited from earlier work.
Data set [9] has as its target T1, Human Src (Homo sapiens, UniProt P12931).
T1 construct: purchased Upstate (Charlottesville, Va.) 14-326
As to the kind of experiment: Src kinase assay (PKLight ATP utilization, substrate phosphorylation as % of parent peptide). The class given is biochemical. Summed up:
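Recombinant human Src or Akt phosphorylated peptide or drug–peptide conjugate substrates (25, 50, 100 μM) at 30° C for 2–5 hours, in Tris-HCl pH 7.5 buffer with MgCl2 and ATP. ATP use was read by luciferase luminescence against no-substrate and no-ATP controls. Phosphorylation was taken from the linear range and expressed as % of the parent peptide.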

Data set [10] concerns tumor cells vs normal cells. As to the kind of experiment: Cytotoxic selectivity index (normal cells in monolayer vs tumor cells in soft agar). As to conditions: HFF/HT29.
Data set [11] deals with HUVEC. The experiment in a line: Cytotoxicity assay (monolayer), HUVEC. The class given is cell-based. Conditions: ML (monolayer), read-out: HUVEC (EC50 Ave) ML.
Data set [12] has as its system MCF-7 breast carcinoma. As to the kind of experiment: Cytotoxicity assay (monolayer), MCF-7.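 Further: cells treated 72 h with 6-8 compound doses versus DMSO vehicle controls, EC50 fitted by 4-parameter dose-response curves, averaged across all tests and lots.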 The class given is cell-based. Conditions: MCF7, ML (monolayer); read-out: MCF7 (EC50 Ave) ML.
Data set [13] has as its system HT-29 cells. As to conditions: read-out: HT29 (EC50 Ave) SA; HT29, SA (soft agar).
Data set [14] deals with Normal human foreskin fibroblasts (HFF). Conditions: read-out: HFF (EC50 Ave) ML; HFF, ML (monolayer).
In data set [15] the test system is tubulin. As to the kind of experiment: Fluorescence-based tubulin polymerization assay (MPA; enhancement for paclitaxel, inhibition for vinblastine). The format is biochemical. A digest of the protocol:
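Tubulin polymerisation was followed by fluorescence (ex 360/em 405 nm) with 1 mg/ml BSA in all assays. For paclitaxel conjugates, glycerol was omitted. Parent drugs and conjugates were tested at 0.75, 1.5, 3 and 10 micromolar final, and values come from the linear range of the dose responses.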

Data set [16] has as its system HT-29 colorectal carcinoma. The experiment in a line: Cytotoxicity assay (monolayer), HT-29.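 Further: monolayer cultures tested in triplicate, compound exposure for three days against DMSO vehicle controls, EC50 fitted from dose-response curves and averaged across all tests and lots.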 The format is cell-based. Conditions: HT29, ML (monolayer); read-out: HT29 (EC50 Ave) ML.
The subject of data set [17] is MCF-7 cells. As to conditions: read-out: MCF7 (EC50 Ave) SA; MCF7, SA (soft agar).

Read-outs that look alike come from different tables or passages of the source. Ends that are not written are not given here.

Chain of Akt (P31749 whole entry): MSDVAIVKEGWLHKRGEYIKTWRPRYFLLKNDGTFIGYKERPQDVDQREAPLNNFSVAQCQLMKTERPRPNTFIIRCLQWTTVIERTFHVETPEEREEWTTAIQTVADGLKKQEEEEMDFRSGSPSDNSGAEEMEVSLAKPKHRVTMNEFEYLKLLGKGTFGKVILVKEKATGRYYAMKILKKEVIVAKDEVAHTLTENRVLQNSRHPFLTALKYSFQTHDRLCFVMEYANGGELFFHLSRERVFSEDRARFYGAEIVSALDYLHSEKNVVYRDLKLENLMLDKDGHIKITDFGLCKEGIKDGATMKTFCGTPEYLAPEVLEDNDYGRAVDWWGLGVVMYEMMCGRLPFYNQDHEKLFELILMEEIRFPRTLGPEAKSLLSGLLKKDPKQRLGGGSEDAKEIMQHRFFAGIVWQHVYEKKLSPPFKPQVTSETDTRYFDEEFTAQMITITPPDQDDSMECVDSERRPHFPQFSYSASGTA
T1 sequence (P12931 whole entry): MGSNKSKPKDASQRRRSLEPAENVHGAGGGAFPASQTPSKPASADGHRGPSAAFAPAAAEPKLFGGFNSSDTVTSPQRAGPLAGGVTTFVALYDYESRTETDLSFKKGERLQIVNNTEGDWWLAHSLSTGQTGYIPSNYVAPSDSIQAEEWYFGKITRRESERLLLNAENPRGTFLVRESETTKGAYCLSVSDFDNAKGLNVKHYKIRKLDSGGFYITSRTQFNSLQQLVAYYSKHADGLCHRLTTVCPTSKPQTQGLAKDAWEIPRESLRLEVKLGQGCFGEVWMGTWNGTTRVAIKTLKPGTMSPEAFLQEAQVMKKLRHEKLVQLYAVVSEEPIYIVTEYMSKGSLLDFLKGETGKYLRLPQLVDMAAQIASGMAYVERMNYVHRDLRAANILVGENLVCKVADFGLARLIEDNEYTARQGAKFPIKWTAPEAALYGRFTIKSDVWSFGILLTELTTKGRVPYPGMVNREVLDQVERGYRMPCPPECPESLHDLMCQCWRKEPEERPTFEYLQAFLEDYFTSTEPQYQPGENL
Chain of Met kinase (P08581 25-1390): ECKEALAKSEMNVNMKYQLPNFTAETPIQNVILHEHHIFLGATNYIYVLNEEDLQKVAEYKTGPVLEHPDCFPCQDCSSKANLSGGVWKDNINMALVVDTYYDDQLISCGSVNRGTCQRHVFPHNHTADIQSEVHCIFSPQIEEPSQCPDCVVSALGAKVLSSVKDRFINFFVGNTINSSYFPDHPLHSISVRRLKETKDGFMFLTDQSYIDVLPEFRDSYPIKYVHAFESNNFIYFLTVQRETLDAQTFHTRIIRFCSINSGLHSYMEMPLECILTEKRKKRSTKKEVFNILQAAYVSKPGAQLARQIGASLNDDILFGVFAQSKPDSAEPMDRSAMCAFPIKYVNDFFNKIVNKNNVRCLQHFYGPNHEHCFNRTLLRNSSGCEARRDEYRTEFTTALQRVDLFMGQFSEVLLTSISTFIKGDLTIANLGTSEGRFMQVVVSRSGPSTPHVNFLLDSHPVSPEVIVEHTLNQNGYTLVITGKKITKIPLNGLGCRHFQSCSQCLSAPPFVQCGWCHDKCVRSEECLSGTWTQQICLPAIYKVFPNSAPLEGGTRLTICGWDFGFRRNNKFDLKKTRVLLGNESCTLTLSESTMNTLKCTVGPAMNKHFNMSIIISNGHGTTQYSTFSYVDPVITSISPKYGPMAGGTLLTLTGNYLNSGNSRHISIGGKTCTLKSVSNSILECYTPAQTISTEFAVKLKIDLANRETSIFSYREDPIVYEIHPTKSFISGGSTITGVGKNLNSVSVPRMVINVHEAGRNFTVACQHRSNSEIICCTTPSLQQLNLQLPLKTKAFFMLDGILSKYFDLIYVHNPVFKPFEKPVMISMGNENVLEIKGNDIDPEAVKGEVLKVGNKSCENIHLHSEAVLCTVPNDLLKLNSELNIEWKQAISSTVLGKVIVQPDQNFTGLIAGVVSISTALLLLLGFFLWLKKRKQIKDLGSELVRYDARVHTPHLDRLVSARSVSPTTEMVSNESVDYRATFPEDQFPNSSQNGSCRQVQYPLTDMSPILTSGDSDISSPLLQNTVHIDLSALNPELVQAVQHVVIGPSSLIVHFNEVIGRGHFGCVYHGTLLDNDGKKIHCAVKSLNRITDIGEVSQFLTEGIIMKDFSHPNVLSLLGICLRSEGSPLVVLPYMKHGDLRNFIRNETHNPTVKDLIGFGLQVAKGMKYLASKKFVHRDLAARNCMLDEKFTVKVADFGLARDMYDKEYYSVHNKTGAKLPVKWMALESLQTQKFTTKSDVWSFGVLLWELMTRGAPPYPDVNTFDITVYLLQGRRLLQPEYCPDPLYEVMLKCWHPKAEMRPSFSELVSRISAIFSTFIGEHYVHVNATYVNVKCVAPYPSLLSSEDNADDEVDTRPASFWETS
Chain of Tie-2 (Q02763 23-1124, species assumed): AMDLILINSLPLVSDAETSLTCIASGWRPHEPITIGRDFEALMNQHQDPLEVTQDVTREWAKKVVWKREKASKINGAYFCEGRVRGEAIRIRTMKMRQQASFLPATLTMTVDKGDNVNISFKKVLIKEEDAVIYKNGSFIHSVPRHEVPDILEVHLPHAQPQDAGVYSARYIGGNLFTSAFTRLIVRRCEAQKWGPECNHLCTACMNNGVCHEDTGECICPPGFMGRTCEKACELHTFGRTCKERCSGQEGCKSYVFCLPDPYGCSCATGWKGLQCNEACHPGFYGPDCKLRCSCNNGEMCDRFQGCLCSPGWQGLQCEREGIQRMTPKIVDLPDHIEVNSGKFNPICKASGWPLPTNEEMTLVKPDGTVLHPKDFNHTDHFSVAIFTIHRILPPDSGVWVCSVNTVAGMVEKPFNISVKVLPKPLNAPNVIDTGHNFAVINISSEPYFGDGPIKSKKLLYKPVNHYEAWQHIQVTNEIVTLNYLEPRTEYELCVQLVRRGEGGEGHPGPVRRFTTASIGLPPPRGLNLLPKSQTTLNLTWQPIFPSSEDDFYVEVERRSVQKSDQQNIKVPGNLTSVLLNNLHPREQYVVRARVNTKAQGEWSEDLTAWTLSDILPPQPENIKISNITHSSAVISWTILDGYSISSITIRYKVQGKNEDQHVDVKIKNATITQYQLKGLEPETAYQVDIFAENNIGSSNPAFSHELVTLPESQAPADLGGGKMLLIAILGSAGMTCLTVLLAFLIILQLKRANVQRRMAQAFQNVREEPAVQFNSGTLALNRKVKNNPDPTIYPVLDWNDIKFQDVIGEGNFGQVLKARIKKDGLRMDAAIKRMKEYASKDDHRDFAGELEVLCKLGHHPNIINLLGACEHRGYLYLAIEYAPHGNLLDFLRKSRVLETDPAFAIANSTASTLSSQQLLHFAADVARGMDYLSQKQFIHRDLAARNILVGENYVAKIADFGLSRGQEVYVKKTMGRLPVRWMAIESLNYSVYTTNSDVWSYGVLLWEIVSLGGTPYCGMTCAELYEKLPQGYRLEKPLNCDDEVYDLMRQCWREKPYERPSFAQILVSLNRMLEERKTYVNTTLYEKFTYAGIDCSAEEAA

One may read the Km as the substrate concentration at which the rate is half of its maximum. In the case of “RLVAYEGWV [nine amino acid peptide substrate for Tie-2]”, the Km in [1] was 119 µM.

For “DSDVHVNATYVNVKCVAP [18 amino acid peptide substrate for Met kinase]”, in data set [2], the Km is 67 µM.

By EC50 is commonly meant the concentration giving half of the maximal effect. A word on the fraction remaining: it is what is left of the initial amount, in per cent. On to `CC[C@]1(O)C[C@@H]2CN(CCc3c([nH]c4ccccc34)[C@@](C(=O)OC)(c3cc4c(cc3OC)N(C)[C@H]3[C@@](O)(C(=O)OC)[C@H](OC(C)=O)[C@]5(CC)C=CCN6CC[C@]43[C@@H]65)C2)C1` [Vinblastine, reference compound], for which the EC50 in data set [3] was 7 ± 7 nM. In [4], the EC50 amounted to 7 ± 5 nM. Also, in data set [5], the “Relative Percent Remaining at 0 hr” value is 100%; the share remaining at 4 h, 10 μM is 95%; the share remaining at 8 h, 10 μM was 95%; the share remaining at 24 h, 10 μM is 87%. Moreover, in data set [5], the amount remaining at 72 h, 10 μM turned out to be 67% and the half-life at 10 μM is above 72 h. Further, the EC50 in data set [6] was determined as 1.5 ± 0.5 nM. In addition, in data set [7], the selectivity ratio came out at 0.2.

For “RPRAATF [peptide substrate for Akt from the literature]”, the “specificity with respect to related MAP kinase and S6 kinase” value in data set [8] was “exhibit specificity”.

In the case of `CC[C@H](C)[C@H](NC(=O)[C@H](Cc1ccc(O)cc1)NC(=O)[C@H](CCC(=O)O)NC(C)=O)C(=O)N[C@@H](Cc1ccc(O)cc1)C(=O)NCC(=O)N[C@@H](CO)C(=O)N[C@@H](Cc1ccccc1)C(=O)N[C@@H](CCCCN)C(=O)NCCCOCCOCCOCCCNC(=O)O[C@H]1C(=O)[C@@]2(C)[C@H]([C@H](OC(=O)c3ccccc3)[C@]3(O)C[C@H](OC(=O)[C@H](O)[C@@H](NC(=O)c4ccccc4)c4ccccc4)C(C)=C1C3(C)C)[C@]1(OC(C)=O)CO[C@@H]1C[C@@H]2O`, the “Average src kinase activity” value in data set [9] was “C (C>40)”. Moreover, the “Cytotoxic Selectivity Index HFF/HT29” value in data set [10] was determined as 20.5. The EC50 in data set [11], in [12], in data set [13], in data set [14], in data set [16] and in [17] was above 100 nM each time. The “Relative Percent Remaining at 0 hr” value in [5] came out at 100%. In addition, the fraction remaining at 4 h, 10 μM in data set [5] amounted to 95%. In addition, the share remaining at 8 h, 10 μM in data set [5] worked out at 99%. In data set [5], the amount remaining at 24 h, 10 μM amounted to 69%. The fraction remaining at 72 h, 10 μM in data set [5] was found to be 22%. In addition, the half-life at 10 μM in data set [5] is 32 h. Besides, in data set [7], the selectivity ratio was determined as 24.1. The “Ave. MPA Act.” value in data set [15] was “B (B=50-80)”.

Turning to “RPRTSTF [peptide substrate for Akt from the literature]”, the “specificity with respect to related MAP kinase and S6 kinase” value in [8] is “exhibit specificity”.
